The values that follow come from patent publication US20240190880A1 (THE REGENTS OF THE UNIVERSITY OF MICHIGAN, priority 2021, published 2024).

The target of one test is T1, ER (Homo sapiens, UniProt P03372).
T1 construct: host or cells: T47D and MCF7 human breast cancer cells
T1 sequence (P03372 1-595): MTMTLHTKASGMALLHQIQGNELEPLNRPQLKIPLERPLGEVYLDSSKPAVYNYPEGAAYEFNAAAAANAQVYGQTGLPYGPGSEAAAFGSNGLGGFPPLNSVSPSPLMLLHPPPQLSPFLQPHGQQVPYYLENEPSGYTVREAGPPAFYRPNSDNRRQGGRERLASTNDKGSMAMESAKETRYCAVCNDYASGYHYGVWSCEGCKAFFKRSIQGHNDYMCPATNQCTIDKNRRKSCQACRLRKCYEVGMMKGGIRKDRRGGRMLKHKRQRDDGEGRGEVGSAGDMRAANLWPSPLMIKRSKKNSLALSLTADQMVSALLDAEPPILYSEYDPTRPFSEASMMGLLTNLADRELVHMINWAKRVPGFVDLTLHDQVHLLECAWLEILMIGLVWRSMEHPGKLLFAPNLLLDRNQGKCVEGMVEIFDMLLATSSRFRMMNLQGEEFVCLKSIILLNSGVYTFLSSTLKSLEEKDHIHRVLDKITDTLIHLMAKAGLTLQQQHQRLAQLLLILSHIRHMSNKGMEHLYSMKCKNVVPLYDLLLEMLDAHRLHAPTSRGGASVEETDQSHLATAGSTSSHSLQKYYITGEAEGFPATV
The test can be described thus: ER degradation activity, in-cell western blot analysis in T47D cells. As to conditions: 16 hours, Table A does not say which cell line (T47D or MCF7), read-out: Potency (DC50). It counts as cell-based. The procedure, abridged:
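Cells were seeded overnight, exposed to diluted compounds for 16 hours, then stained with primary antibodies and with infrared-labelled secondary antibodies (1:1000, 1 h RT). Plates were scanned on a CLX reader, and ER levels were normalised to DMSO-treated wells.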
Take `C[C@@H]1Cc2c([nH]c3ccccc23)[C@@H](c2c(F)cc(-c3ccc(C(=O)N4CCC(N5Cc6cc7c(cc6C5)C(=O)N(C5CCC(=O)NC5=O)C7=O)CC4)nn3)cc2F)N1CC(F)F` (stereo partly drawn) [E 345, 6-(1-(6-(4-((1R,3R)-2-(2,2-difluoroethyl)-3-methyl-2,3,4,9-tetrahydro-1H-pyrido[3,4-b]indol-1-yl)-3,5-difluorophenyl)pyridazine-3-carbonyl)piperidin-4-yl)-2-(2,6-dioxopiperidin-3-yl)-6,7-dihydropyrrolo[3,4-f]isoindole-1,3(2H,5H)-dione]: the DC50 (commonly the midpoint of the concentration-degradation curve) is 10 to 100 nM.
With `C[C@@H]1Cc2c([nH]c3ccccc23)[C@@H](c2c(F)cc(N3CCC(CN4CC(N5Cc6cc7c(cc6C5)C(=O)N(C5CCC(=O)NC5=O)C7=O)C4)CC3)cc2F)N1CC(F)F` (stereo partly drawn) [E 123, 6-(1-((1-(4-((1R,3R)-2-(2,2-difluoroethyl)-3-methyl-2,3,4,9-tetrahydro-1H-pyrido[3,4-b]indol-1-yl)-3,5-difluorophenyl)piperidin-4-yl)methyl)azetidin-3-yl)-2-(2,6-dioxopiperidin-3-yl)-6,7-dihydropyrrolo[3,4-f]isoindole-1,3(2H,5H)-dione], the DC50 lay within 10 to 100 nM.
The same measure, in the same setting: the result for `C[C@H]1CC2(CCN(c3ccc([C@@H]4c5ccc(O)cc5CC[C@@H]4c4ccccc4)cc3)CC2)CN1CC(=O)N1Cc2cc3c(cc2C1)C(=O)N(C1CCC(=O)NC1=O)C3=O` (mixture of isomers) [E 151, Rac-2-(2,6-dioxopiperidin-3-yl)-6-(2-((S)-8-(4-((1R,2S)-6-hydroxy-2-phenyl-1,2,3,4-tetrahydronaphthalen-1-yl)phenyl)-3-methyl-2,8-diazaspiro[4.5]decan-2-yl)acetyl)-6,7-dihydropyrrolo[3,4-f]isoindole-1,3(2H,5H)-dione] reads more than 100 nM; that for `O=C1CCC(N2C(=O)c3cc4c(cc3C2=O)CN(CC(=O)N2CCC3(CC2)CCN(c2ccc([C@@H]5c6ccc(O)cc6CC[C@@H]5c5ccccc5)nc2)CC3)C4)C(=O)N1` (mixture of isomers) [E 305, Rac-2-(2,6-dioxopiperidin-3-yl)-6-(2-(9-(6-((1S,2S)-6-hydroxy-2-phenyl-1,2,3,4-tetrahydronaphthalen-1-yl)pyridin-3-yl)-3,9-diazaspiro[5.5]undecan-3-yl)-2-oxoethyl)-6,7-dihydropyrrolo[3,4-f]isoindole-1,3(2H,5H)-dione], more than 100 nM; that for `C[C@@H]1Cc2c([nH]c3ccccc23)[C@@H](c2c(F)cc(N3CC4(CCN(CC(=O)N5Cc6cc7c(cc6C5)C(=O)N(C5CCC(=O)NC5=O)C7=O)C4)C3)cc2F)N1CC(F)F` (stereo partly drawn) [E 74, 6-(2-(2-(4-((1R,3R)-2-(2,2-difluoroethyl)-3-methyl-2,3,4,9-tetrahydro-1H-pyrido[3,4-b]indol-1-yl)-3,5-difluorophenyl)-2,6-diazaspiro[3.4]octan-6-yl)acetyl)-2-(2,6-dioxopiperidin-3-yl)-6,7-dihydropyrrolo[3,4-f]isoindole-1,3(2H,5H)-dione], 10 to 100 nM.
Same read-out and setting: next, `C[C@@H]1Cc2c([nH]c3ccccc23)[C@@H](c2c(F)cc(N3CCC4(CN(C(=O)CN5Cc6cc7c(cc6C5)C(=O)N(C5CCC(=O)NC5=O)C7=O)C4)C3)cc2F)N1CC(F)F` (stereo partly drawn) [E 83, 6-(2-(6-(4-((1R,3R)-2-(2,2-difluoroethyl)-3-methyl-2,3,4,9-tetrahydro-1H-pyrido[3,4-b]indol-1-yl)-3,5-difluorophenyl)-2,6-diazaspiro[3.4]octan-2-yl)-2-oxoethyl)-2-(2,6-dioxopiperidin-3-yl)-6,7-dihydropyrrolo[3,4-f]isoindole-1,3(2H,5H)-dione]: less than 10 nM.

Staying with this test, now noted: compounds 16 hours, Table A does not say whether T47D or MCF7, read-out: Potency (DC50).
Take `C[C@@H]1Cc2c([nH]c3ccccc23)[C@@H](c2ccc(C3=CCC(C(=O)N4CCC(N5Cc6cc7c(cc6C5)C(=O)N(C5CCC(=O)NC5=O)C7=O)CC4)CC3)cc2F)N1CC1(F)CC1` (stereo partly drawn) [E 486, 2-(2,6-dioxopiperidin-3-yl)-6-(1-(3′-fluoro-4′-((1R,3R)-2-((1-fluorocyclopropyl)methyl)-3-methyl-2,3,4,9-tetrahydro-1H-pyrido[3,4-b]indol-1-yl)-2,3,4,5-tetrahydro-[1,1′-biphenyl]-4-carbonyl)piperidin-4-yl)-6,7-dihydropyrrolo[3,4-f]isoindole-1,3(2H,5H)-dione]: the DC50 is more than 100 nM.
